Source: patent US20090203720A1, “Methods for inhibiting cell growth” (priority 2003, published 2009)

Tests used:
CK1 isoforms = conditions: literature (refs 25,26); read-out: reported IC50 for inhibition of CK1 isoforms; cited from earlier work
CK1α = CK1α (Homo sapiens, UniProt P48729); test: In vitro kinase assay of RXR immunoprecipitated complexes with inhibitor in the assay mixture; assay type: biochemical; conditions: RXR immunoprecipitated complexes from Compound 1-treated HEK293 Flag-RXR cells; read-out: IC50 for inhibition of phosphorylation of RXR and p160
Description: To determine that the kinase activity which phosphorylates RXR and p160 in the RXR complex is only contributed by CK1α, in vitro kinase assays of the RXR immunoprecipitated complexes in the presence of various concentrations of a known CK1 specific inhibitor CK1-7 (25) was performed.
The immunoprecipitated complexes were re-suspended in 15 μl of kinase assay buffer (30 mM Tris-HCl, pH 7.4 and 10 mM MgCl2). The kinase reactions were initiated by adding 2 μl of 50 μM [γ-32P]ATP (10 μCi) into the immunocomplexes, followed by incubation at 30° C. with shaking for 20 min, and terminated by adding 6 μl of 4× SDS sample loading buffer. After heating at 100° C. for 5 min, the reaction mixtures were resolved by 4-12% SDS-PAGE. The incorporation of ^32P into RXR and other proteins was determined by subjecting the gel to autoradiography.

RXRα homodimers = test: Transactivation assay, pRXRE-Luc (DR-1) reporter in CV-1 cells; assay type: cell-based; conditions: 10^-8 M, 16 hr, CV1 cells
Description: (§1) FIGS. 4A, 4B and 4C display evidence of transactivation by RXRα homodimers or RXRα:RARα heterodimers is not modulated by CK1α. For the left panel, CV1 cells were cotransfected with pFlag-RXRα, reporter plasmid pRXRE-Luc, β-galactosidase expression vector, plus increasing amount of CK1α expression vector (lane 1 and 2: 0 ng; lane 3: 50 ng; lane 4: 100 ng; lane 5: 200 ng), or sense strand CK1α or double-strand RNAi CK1α, or sense strand CK1ε or double-strand RNAi CK1ε. […] Data are presented as the activity of luciferase normalized to that of β-galactosidase activity, which served as an internal control for transfection efficiency and are the mean of three independent experiments with triplicates for each. For the middle panel, CV1 cells were cotransfected with pFlag-RXRα, pRAR-V5, reporter plasmid pRARE-Luc, β-galactosidase expression vector, plus sense strand CK1α or double-strand RNAi CK1α. […] Data are presented as the activity of luciferase normalized to that of β-galactosidase activity and are the mean of three independent experiments with triplicates for each. CK1α could efficaciously be depleted in CV-1 cells by small double-strand RNAi, judged by immunoblotting the total cell lysates with anti-CK1α antibodies (left panel).
CK1α is the smallest in the CK1 family. […] The role of CK1α in transactivation by RXR homodimers and RXR:RAR heterodimers was determined. […]

[1] = test system: DT40RXR and JurkatRXR cells; test: Cell death/growth inhibition in RXR-overexpressing versus parental cells; assay type: cell-based; conditions: JurkatRXR vs parental cells, 3 days
Description: FIGS. 1A, 1B and 1C show RXR and RXR agonist dependent cell growth inhibition: DT40, DT40RXR, Jurkat, and JurkatRXR cells (5×10^3 cells/ml) were treated with various doses of AGN19424 for 3 days (the left two panels). Viable cells were counted and were presented as percentage of control (cells without treatment).
Overexpressing activated RXR may mediate growth inhibitory effects in some human carcinoma cells (17). To confirm that the effects of RXR agonists were mediated by RXR proteins and explore the molecular mechanism, two RXR stably expression cell lines were generated using B lymphoma cell (DT40) and T lymphoma cells (Jurkat cells), which are named DT40RXR and JurkatRXR (FIG. 1A, left panel).
(§2) The sensitivity of the wild-type cells and the cells stably expressing RXR to RXR agonist treatment.

Jurkat-pSupCK1α cells = test: Apoptotic populations in CK1α-suppressed Jurkat cells; assay type: cell-based; conditions: 3 days
Description: FIGS. 4J, 4K, 4L and 4M show effects of depletion of CK1α on Jurkat cells: A cell line (Jurkat-pSupCK1α) in which CK1α expression is suppressed by stably expressing SiRNA CK1α was generated from Jurkat cells (left panel). The effect of COMPOUND-1 (4 days) on growth inhibition of Jurkat and Jurkat-pSupCK1α cells was measured (the second panel).
Based on this observation, CK1α negative regulation RXR-mediated apoptosis. HEK293RXR and Jurkat cells were used to deplete the expression of endogenous CK1α by stably transfecting CK1α RNAi expression vector. Although the depletion of endogenous CK1α in both cell lines was not very efficient, (with a 30% to 50% decrease for the expression of CK1α achieved in both cell lines) after decreasing the CK1α expression, both cell lines were becoming very sensitive to the treatment of RXR agonist in term of the cell growth inhibition (FIGS. 4J, 4K, 4L and 4M). Apoptotic cell populations of Jurkat-pSupCK1 (containing the CK1α RNAi construct) is increased compared to the parental cell lines in the presence of RXR agonist (FIGS. 4J, 4K, 4L and 4M).

RXRα = biological target: T1, RXRα (Homo sapiens, UniProt P19793); test: Ligand-dependent recruitment of protein kinase to Flag-RXRα immunocomplexes (immunoprecipitation, in vitro kinase assay); assay type: cell-based; conditions: for recruitment of protein kinase to RXR immunocomplexes: transfected HEK293 cells, ligands at 10^-6 M, 15 minutes
T1 construct: expressed in transfected cells; host or cells: HEK293
T1 sequence (P19793 1-462): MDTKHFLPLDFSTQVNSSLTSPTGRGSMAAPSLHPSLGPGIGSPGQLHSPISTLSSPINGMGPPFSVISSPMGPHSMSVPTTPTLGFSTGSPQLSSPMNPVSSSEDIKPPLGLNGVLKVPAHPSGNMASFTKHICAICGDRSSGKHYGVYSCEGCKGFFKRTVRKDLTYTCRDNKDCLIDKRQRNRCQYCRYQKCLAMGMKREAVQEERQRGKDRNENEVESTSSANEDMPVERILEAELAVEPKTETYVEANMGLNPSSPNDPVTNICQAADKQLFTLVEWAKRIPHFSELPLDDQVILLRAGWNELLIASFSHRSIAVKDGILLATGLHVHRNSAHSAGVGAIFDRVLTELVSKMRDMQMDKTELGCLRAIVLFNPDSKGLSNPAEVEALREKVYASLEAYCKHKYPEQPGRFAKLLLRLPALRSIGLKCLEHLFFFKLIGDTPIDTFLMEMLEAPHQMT
Description: Total cell lysates were immunoprecipitated with anti-Flag antibody (M2). An aliquot of the immunocomplexes were used for the in vitro kinase reaction with [γ-^32P]ATP and separated on SDS-PAGE. The phosphorylated proteins were detected by autoradiography (right panel). To show the presence of equal amounts of RXR in the immunoprecipitates, additional aliquots of the immunocomplexes were subjected to immunoblotting with a polyclonal antibody (D20) against RXR (left panel).
In vitro kinase reaction assay was performed.

DT40 cells [2] = test: Apoptosis by FACS DNA content analysis (propidium iodide); assay type: cell-based; conditions: 10 nM, 3 days, cells with DNA content less than G1, 3.5% without agonist
Description: (§3) Cells having a DNA content less than the G1 population were considered as apoptotic cells.
(§4) For immunoblotting, proteins from cell lysates or immunoprecipitates were subjected to separation on SDS-PAGE (38). The resolved polypeptides were transferred to PVDF membrane and analyzed by immunoblotting (39). The targeted proteins were detected using the enhanced chemiluminescence immunodetection system (Amersham). DNA content analysis by FACS was performed on FACScan™ (Becton Dickinson) as described (40).

JurkatRXR cells = test: as above; assay type: cell-based; conditions: 10 nM, 3 days, 11.9% without agonist
Description: as §3, §4

DT40RXR cells [3] = test: as above; assay type: cell-based; conditions: 10 nM, 3 days, 10.4% without agonist
Description: as §3, §4

Jurkat cells = test: as above; assay type: cell-based; conditions: 10 nM, 3 days, 2.8% without agonist
Description: as §3, §4

DT40RXR cells [4] = test: Activation of caspases 3 and 9; assay type: cell-based
Description: (§5) Caspase activities were measured following manufacturer's protocols and presented as fold increase in relative to control.
as §2

DT40 cells [5] = test: Activation of caspases 3 and 9; assay type: cell-based
Description: as §5, §2

RXR-associated kinase = test: Effect of signalling pathway modulators on RXR-associated kinase activity in RXR transfected cells; assay type: cell-based; conditions: cell treatment: anisomycin 50 μM; pathway inhibitors 1 hour; insulin 30 minutes
Description: (§6) The cells were stimulated with anisomycin (50 μM) and COMPOUND-1 (10^−7 M) as indicated, then the cell lysates were subjected to immunoprecipitation and in vitro kinase assay (bottom panel).
(§7) Activation of stress pathways lead to the phosphorylation of RXR (22,23), and MKK4/SEK1 is reported to associate with and phosphorylate RXR directly (23). […] Anisomycin treatment led to phosphorylation of RXR resulting in an up-shift of the RXR band on SDS-PAGE (22).
To further study the effect of signaling transduction pathways on the RXR-associated kinase activity, RXR transfected cells were incubated with inhibitors of the PI3 kinase (wortmannin), p42/44 MAPK (PD98059), or p38 MAPK pathways (SB202190 or SB203580) for 1 hour or stimulated with insulin or 10% serum for 30 minutes. RXR complexes were then isolated and the in vitro kinase assays were performed in the usual manner.

RXR:RAR heterodimers = test: Transactivation assay, pRARE-Luc reporter in CV-1 cells; assay type: cell-based; conditions: CV-1 cells cotransfected with RXRα and RARα; 10^-7 M, 16 hr
Description: as §1
Similar transfection experiments were also performed using pRARE-Luc as reporter with cotransfection of RXRα and RARα. […]

MKK4 = MKK4 phosphorylation (stress pathway activation) by immunoblotting; assay type: cell-based; conditions: HEK293 transfected with RXR or RXR plus MKK4
Description: as §6, §7, §4

Sequence of CK1α (P48729 whole entry, one chain of several): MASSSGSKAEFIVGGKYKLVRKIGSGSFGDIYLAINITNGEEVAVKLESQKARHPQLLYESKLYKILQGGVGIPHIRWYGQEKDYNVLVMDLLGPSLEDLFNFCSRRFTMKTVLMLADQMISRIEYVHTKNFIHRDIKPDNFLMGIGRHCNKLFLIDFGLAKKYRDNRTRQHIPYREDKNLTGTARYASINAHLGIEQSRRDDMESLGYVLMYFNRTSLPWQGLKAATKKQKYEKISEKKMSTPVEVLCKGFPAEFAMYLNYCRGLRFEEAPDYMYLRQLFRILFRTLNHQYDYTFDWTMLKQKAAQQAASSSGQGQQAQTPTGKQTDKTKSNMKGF

For `NCCNS(=O)(=O)c1ccc(Cl)c2ccncc12` [CK1-7, N-(2-amino-ethyl)-5-chloroisoquinoline-8-sulfonamide], the IC50 (CK1 isoforms) is given as 10 to 100 µM and the IC50 (CK1α) is given as ~30 µM.
For `CC(/C=C/C1CC1(C)c1ccc2c(c1)C(C)(C)CCC2(C)C)=C\C(=O)O` (stereo not shown) [Compound 1], the DR-1 luciferase expression (RXRα homodimers) was “greatly stimulated”, the “efficacy in cell death/growth inhibition on overexpression of RXR” value [1] was “dramatically increase the efficacy” and the apoptotic populations (Jurkat-pSupCK1α cells) was “dramatic increase of apoptotic populations”. For the same molecule, the “kinase activity in Flag-RXR immunoprecipitated complex when ligand added only to the in vitro kinase reaction” value (RXRα; immunoprecipitation in absence of Compound 1, added later to kinase reaction mixture) was “could not be detected”, the “recruitment of protein kinase to RXR immunocomplexes” value (RXRα) was “contained the kinase that could phosphorylate RXR and the 160 kDa protein” and the apoptotic cells (DT40 cells [2]) was 4.5%. It also gave an apoptotic cells (JurkatRXR cells) of 36.4%, an apoptotic cells (DT40RXR cells [3]) of 57.3% and an apoptotic cells (Jurkat cells) of 3.4%. For the same molecule, the “activation of caspases 3 and 9” value (DT40RXR cells [4]) was “activated”.
In the case of `OO` [Compound H2O2, hydrogen peroxide, reference compound], the “activation of caspases 3 and 9” value (DT40 cells [5]) is reported as “could activate caspases 3 and 9” and the “activation of caspases 3 and 9” value (DT40RXR cells [4]) is reported as “could activate caspases 3 and 9”.
With `COc1cccc(-c2cc(=O)c3ccccc3o2)c1N` [PD98059] the “effect on kinase activities in the RXR immunocomplexes” value (from here on “effect on kinase activities”) (RXR-associated kinase) was “not influenced to a significant degree”.
In the case of `Oc1ccc(-c2nc(-c3ccncc3)c(-c3ccc(F)cc3)[nH]2)cc1` [SB202190], the “effect on kinase activities” value (RXR-associated kinase) is reported as “not influenced to a significant degree”.
In the case of `C[S+]([O-])c1ccc(-c2nc(-c3ccncc3)c(-c3ccc(F)cc3)[nH]2)cc1` (stereo not shown) [SB203580], the “effect on kinase activities” value (RXR-associated kinase) is reported as “not influenced to a significant degree”.
For `C/C(=C\c1ccc(C(=O)O)cc1)c1ccc2c(c1)C(C)(C)CCC2(C)C` [TTNPB, reference compound], the “recruitment of protein kinase to RXR immunocomplexes” value (RXRα) was “did not recruit the protein kinase” and the “activation of RXR:RAR heterodimers (pRARE-Luc)” value (RXR:RAR heterodimers) was “activated”.
In the case of `COc1ccc(C[C@H]2NC[C@H](O)[C@H]2OC(C)=O)cc1` [anisomycin], the “phosphorylation of MKK4” value (MKK4) is reported as “increased phosphorylation of both endogenous and overexpressed MKK4” and the “effect on kinase activities” value (RXR-associated kinase) is reported as “not affected by anisomycin treatment”.
In the case of “insulin: insulin used to stimulate RXR transfected cells for 30 minutes”, the “effect on kinase activities” value (RXR-associated kinase) is reported as “not influenced to a significant degree”.
